Results as given in patent publication US4672057A, “Morpholino derivatives of daunorubicin and doxorubicin” (priority 1985, dated 1987).
Converted amounts (≈) assume the structure as drawn. Like-named read-outs stand apart in the source and are kept apart here.

Assays:
HeLa cells = assay: Colony inhibition test against HeLa cells in vitro; format: cell-based; conditions: Homo sapiens
Text: The compounds have been tested in several experimental systems in order to ascertain their cytotoxicity and antitumor activity in experimental animals.
Colony inhibition test against HeLa cells
in vitro (treatment for 24 hrs)

P388 leukemia = assay: Antitumor activity against P388 leukemia in CDF-1 mice; format: in vivo; conditions: for LTS (long term survivors, >60 days) / Toxic deaths / T/C %: ip on day 1; for Toxic deaths: autopsy findings; for T/C %: median survival time
Protocol: (§1) The primary screening in vivo was carried out in CDF-1 mice bearing P388 ascetic leukemia (10^6 cells/mouse). […] The doxorubicin analogs II, IV, VI have been tested in C3H mice bearing the Gross leukemia injected iv (2×10^6 cell/mouse). […] Compound II has been studied on P388 leukemia cells resistant to doxorubicin (P388/DX) in vitro and in vivo. Cytotoxicity tests were carried out exposing the cells to various drug concentrations for 48 hrs. At the end of exposure period cells were counted with a coulter cell counter, and the ID50 (dose which gives 50% reduction of the cell number in comparison with untreated controls) was calculated. […] Compound II has been tested also in vivo in BDF-1 mice bearing P388/DX leukemia.
Antitumor activity against P388 leukemia
^a Median survival time; % over untreated controls
^b Long term survivors (>60 days)
^c Evaluated on the basis of autopsy findings on dead mice

Gross leukemia = assay: Activity on Gross leukemia in C3H mice; format: in vivo; conditions: for LTS (long term survivors, >60 days) / Toxic deaths / T/C %: iv on day 1; for Toxic deaths: autopsy findings; for T/C %: median survival time; for potency versus doxorubicin in Gross leukemia: iv on day 1 after tumor inoculation
Protocol: as §1
Activity on Gross leukemia (IV-1)

P388 leukemia cells = assay: Cytotoxicity test on doxorubicin-sensitive P388 leukemia cells in vitro; format: cell-based; conditions: for IC50: Mus musculus
Protocol: as §1
(§2) Effect on sensitive and doxorubicin-resistant
(§3) ^a Dose giving 50% reduction of cell number in comparison with
^b P388 leukemia cells sensitive to doxorubicin

P388/DX leukemia cells = assay: Cytotoxicity test on doxorubicin-resistant P388 leukemia cells (P388/DX) in vitro; format: cell-based; conditions: for activity on P388/DX leukemia cells: P388/DX cells in vitro, 48 hrs
Protocol: as §1, §2, §3
^c P388 leukemia cells resistant to doxorubicin

P388/DX leukemia = assay: Effect on doxorubicin-resistant P388 leukemia (P388/DX) in vivo; parameters: species or system BDF-1 mice; conditions: for Toxic deaths: autopsy findings; for T/C: median survival time
Protocol: as §1
Effect on doxorubicin-resistant P388 leukemia

[1] = compared with doxorubicin, P388 leukemia in mice
[2] = HeLa cells, colony inhibition, treatment for 24 hrs, read-out: ID50 (the source's name)

## COc1cccc2c1C(=O)c1c(O)c3c(c(O)c1C2=O)C[C@@](O)(C(C)=O)C[C@@H]3O[C@H]1C[C@H](N2CCOC(OC)C2)[C@H](O)[C@H](C)O1 (stereo partly shown) [Compound I, 3'-deamino-3'-(2"-methoxy-4"-morpholinyl)daunorubicin]
HeLa cells; HeLa, 24 h, read-out: ID50
  IC50: 2 ng/mL (≈ 3.19 nM)
P388 leukemia; 0.13 mg/Kg
  LTS (long term survivors, >60 days): 0/10
  Toxic deaths: 0/10
  T/C %: 136%

## COc1cccc2c1C(=O)c1c(O)c3c(c(O)c1C2=O)C[C@@](O)(C(=O)CO)C[C@@H]3O[C@H]1C[C@H](N2CCOC(OC)C2)[C@H](O)[C@H](C)O1 (stereo partly shown) [Compound II, 3'-deamino-3'-(2"-methoxy-4"-morpholinyl)doxorubicin]
HeLa cells; HeLa, 24 h, read-out: ID50
  IC50: 0.96 ng/mL (≈ 1.49 nM)
P388 leukemia; 0.15 mg/Kg
  LTS (long term survivors, >60 days): 2/10
  Toxic deaths: 0/10
  T/C %: 295%
P388 leukemia; [1]
  efficacy versus the parent drug: exhibits a major efficacy
  potency versus the parent drug: more potent than the parent drug
  times more potent than the parent drug: 60 times
Gross leukemia; 0.16 mg/Kg
  LTS (long term survivors, >60 days): 0/10
  Toxic deaths: 0/10
  T/C %: 150%
Gross leukemia
  potency versus doxorubicin in Gross leukemia: more potent than doxorubicin
P388 leukemia cells; P388, 48 h, read-out: ID50
  IC50: 0.3 ng/mL (≈ 0.466 nM)
P388 leukemia cells; P388 leukemia cells
  times more cytotoxic than doxorubicin: 40 times
P388/DX leukemia cells
  activity on P388/DX leukemia cells: very active
P388/DX leukemia cells; P388/DX, 48 h, read-out: ID50
  IC50: 3 ng/mL (≈ 4.66 nM)
P388/DX leukemia; 0.075 mg/Kg
  LTC (long term survivors, >60 days): 0/10
  Toxic deaths: 0/10
  T/C: 100%
P388/DX leukemia; 0.15 mg/Kg
  LTC (long term survivors, >60 days): 0/10
  Toxic deaths: 1/10
  T/C: 165%
P388/DX leukemia; BDF-1 mice, 0.15 mg/Kg
  activity in P388/DX leukemia in vivo: very active

## COc1cccc2c1C(=O)c1c(O)c3c(c(O)c1C2=O)C[C@@](O)(C(C)=O)C[C@@H]3O[C@H]1C[C@H](N)[C@H](O)[C@H](C)O1 [Daunorubicin, daunorubicin]
HeLa cells; [2]
  IC50: 18.6 ng/mL (≈ 35.3 nM)
P388 leukemia; 2.9 mg/Kg
  LTS (long term survivors, >60 days): 0/10
  Toxic deaths: 0/10
  T/C %: 145%
P388 leukemia; 4.4 mg/Kg
  LTS (long term survivors, >60 days): 0/10
  Toxic deaths: 1/10
  T/C %: 150%

## COc1cccc2c1C(=O)c1c(O)c3c(c(O)c1C2=O)C[C@@](O)(C(=O)CO)C[C@@H]3O[C@H]1C[C@H](N)[C@H](O)[C@H](C)O1 [Doxorubicin, doxorubicin]
HeLa cells; [2]
  IC50: 18 ng/mL (≈ 33.1 nM)
P388 leukemia; 6.6 mg/Kg
  LTS (long term survivors, >60 days): 0/10
  Toxic deaths: 0/10
  T/C %: 214%
P388 leukemia; 10 mg/Kg
  LTS (long term survivors, >60 days): 1/10
  Toxic deaths: 0/10
  T/C %: 214%
Gross leukemia; 10 mg/Kg
  LTS (long term survivors, >60 days): 0/10
  Toxic deaths: 0/10
  T/C %: 183%
Gross leukemia; 13 mg/Kg
  LTS (long term survivors, >60 days): 0/10
  Toxic deaths: 0/10
  T/C %: 200%
P388 leukemia cells; P388 sensitive to doxorubicin, 48 hrs exposure, cell count, read-out: ID50 (the source's name)
  IC50: 12 ng/mL (≈ 22.1 nM)
P388/DX leukemia cells
  activity on P388/DX leukemia cells: inactive
P388/DX leukemia cells; P388/DX resistant to doxorubicin, 48 hrs exposure, cell count, read-out: ID50 (the source's name)
  IC50: 1500 ng/mL (≈ 2760 nM)
P388/DX leukemia; 4.4 mg/Kg
  LTC (long term survivors, >60 days): 0/10
  Toxic deaths: 0/10
  T/C: 110%
P388/DX leukemia; 6.6 mg/Kg
  LTC (long term survivors, >60 days): 0/10
  Toxic deaths: 0/10
  T/C: 100%

## COc1cccc2c1C(=O)c1c(O)c3c(c(O)c1C2=O)C[C@@](O)(C(C)=O)C[C@@H]3O[C@H]1C[C@H](N2CC(C)OC(OC)C2)[C@H](O)[C@H](C)O1 (stereo partly shown) [III, 3'-deamino-3'-(2"-methoxy-6"-methyl-4"-morpholinyl)daunorubicin]
HeLa cells; HeLa, 24 h, read-out: ID50
  IC50: 1.8 ng/mL (≈ 2.81 nM)

## COc1cccc2c1C(=O)c1c(O)c3c(c(O)c1C2=O)C[C@@](O)(C(=O)CO)C[C@@H]3O[C@H]1C[C@H](N2CC(C)OC(OC)C2)[C@H](O)[C@H](C)O1 (stereo partly shown) [IV, 3'-deamino-3'-(2"-methoxy-6"-methyl-4"-morpholinyl)doxorubicin]
HeLa cells; HeLa, 24 h, read-out: ID50
  IC50: 0.32 ng/mL (≈ 0.487 nM)
P388 leukemia; 0.2 mg/Kg
  LTS (long term survivors, >60 days): 0/10
  Toxic deaths: 0/10
  T/C %: 173%
P388 leukemia; [1]
  potency versus the parent drug: more potent than the parent drug
Gross leukemia; 0.27 mg/Kg
  LTS (long term survivors, >60 days): 0/10
  Toxic deaths: 0/10
  T/C %: 142%
Gross leukemia
  potency versus doxorubicin in Gross leukemia: more potent than doxorubicin

## COc1cccc2c1C(=O)c1c(O)c3c(c(O)c1C2=O)C[C@@](O)(C(C)=O)C[C@@H]3O[C@H]1C[C@H](N2CC(CO)OC(OC)C2)[C@H](O)[C@H](C)O1 (stereo partly shown) [V, 3'-deamino-3'-(2"-methoxy-6"-hydroxymethyl-4"-morpholinyl)daunorubicin]
HeLa cells; HeLa, 24 h, read-out: ID50
  IC50: 10.5 ng/mL (≈ 16 nM)
P388 leukemia; 2.0 mg/Kg
  LTS (long term survivors, >60 days): 0/10
  Toxic deaths: 0/10
  T/C %: 145%
P388 leukemia; 3.0 mg/Kg
  LTS (long term survivors, >60 days): 0/10
  Toxic deaths: 0/10
  T/C %: 164%
P388 leukemia; same optimal dose, P388 leukemia in mice
  activity versus daunorubicin (increase of mice life span): more active than daunorubicin

## COc1cccc2c1C(=O)c1c(O)c3c(c(O)c1C2=O)C[C@@](O)(C(=O)CO)C[C@@H]3O[C@H]1C[C@H](N2CC(CO)OC(OC)C2)[C@H](O)[C@H](C)O1 (stereo partly shown) [VI, 3'-deamino-3'-(2"-methoxy-6"-hydroxymethyl-4"-morpholinyl)doxorubicin]
HeLa cells; HeLa, 24 h, read-out: ID50
  IC50: 9 ng/mL (≈ 13.4 nM)
P388 leukemia; 1.33 mg/Kg
  LTS (long term survivors, >60 days): 0/10
  Toxic deaths: 0/10
  T/C %: 164%
P388 leukemia; 2.0 mg/Kg
  LTS (long term survivors, >60 days): 0/10
  Toxic deaths: 0/10
  T/C %: 195%
P388 leukemia; [1]
  potency versus the parent drug: more potent than the parent drug
Gross leukemia; 2 mg/Kg
  LTS (long term survivors, >60 days): 0/10
  Toxic deaths: 0/10
  T/C %: 150%
Gross leukemia
  potency versus doxorubicin in Gross leukemia: more potent than doxorubicin
